# Experimental data taken from PubChem BioAssay AID179 (DTP/NCI, 2004).
# Values joined by “and” are separate entries in the source; they are usually repeats but may differ in a detail not shown here. Identical values can stand only once. Active and inactive are the calls of the source.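 The calls were made as follows: active = compounds giving half or more protection of infected cells from virus-caused growth loss, again on retest; inactive = the rest.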
# System: CEM cells HIV-1 protection, formazan growth assay
# Assay: NCI AIDS Antiviral Assay
# Conditions: for IC50: measured here: growth of uninfected CEM cells
# How it was run: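 Screen of anti-HIV-1 activity in human CEM cells using a formazan-based growth measurement at five drug concentrations. Hits with 50% or greater protection were repeated, and confirmation required reproducible complete protection.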
SMILES,EC50 [µM],IC50,outcome
O=[N+]([O-])c1cccc(-c2oc(C=Nc3ccccc3)c([N+](=O)[O-])c2-c2cccc([N+](=O)[O-])c2)c1,> 56.2,> 56.2 µM,
O=C(c1nsc(Cl)c1Cl)N1CCCCC1,> 200,> 200 µM,
O=C(/C=C\c1ccc(Cl)cc1Cl)c1cccs1,> 200,32.4 µM,
Cc1ccccc1C1=[N+]([O-])c2ccc(Cl)cc2C1=O,,,inactive
Cc1c(O)c(OC2OC(CO)C(O)C(O)C2O)cc2c1CC[C@@H]1C2(C)C(=O)C[C@]2(C)[C@@H]([C@@](C)(O)C(=O)CCC(C)(C)O)[C@H](O)C[C@@]12C (some centres not stated),> 200,> 200 µM,
CC1(C)OCC2OC(n3cnc4c(N)nc(Cl)nc43)C(OS(C)(=O)=O)C2O1 (configuration not stated),> 11.2,7.59 µM,
O=C(O)CSc1n[nH]c(/C=C/c2ccccc2)n1,> 955,> 955 µM,
Cc1ccc(/C=C2\NC(=S)N(CN3CCCCC3)C2=O)cc1,> 200,29.5 µM,
CC(=O)CC(=O)Nc1ccccc1.CC(=O)CC(=O)Nc1ccccc1.[Cu],> 200,17.4 µM,
COc1c(OC2OC(CO)C(O)C(O)C2O)cc2c(c1OC)-c1ccc(OC)c(=O)cc1[C@@H](NC(C)=O)CC2 (some centres not stated),,,inactive
COC(=O)Cc1c(C2=Nc3ccccc3C2(O)CC(=O)OC)[nH]c2ccccc12 (configuration not stated),> 200,91.2 µM,
COC(=O)c1cc(C(=O)OC)c(CC(=O)C(=O)Nc2c(C(C)C)cccc2C(C)C)nc1CC(=O)C(=O)Nc1c(C(C)C)cccc1C(C)C,> 200,> 200 µM,
Cc1csc(NC23CC4CC(CC(C4)C2)C3)[n+]1C(P(=O)([O-])O)P(=O)(O)O (configuration not stated),> 200,> 200 µM,
COC(=O)c1cc(C#N)[nH]c1-c1ccsc1,> 200,30.9 µM,
COc1ccc(C(=O)C(C(=O)CCC(=O)Nc2ccc(Cl)c(Cl)c2)c2ccc(OC)cc2)cc1 (configuration not stated),> 72.4,> 72.4 µM,
N#CC(C(=O)/C(=N/N)C(C#N)c1ccccc1)c1ccccc1 (configuration not stated),> 309,> 309 µM,
C=CC1(C)CCC2C(C)(C)C(Br)CC[C@]2(C)O1 (some centres not stated),,,inactive
COC(=O)[C@H](Cc1c[nH]c2ccccc12)NP(=O)(OCCC#N)OCC1OC(n2cc(C)c(=O)[nH]c2=O)CC1N=[N+]=[N-] (some centres not stated),55,186 µM,
CC1(c2ccc[n+](Cc3ccccc3)c2)OCCO1,> 398,380 µM,
CCOP(=O)(OCC)C1CC(O)C(=O)N1 (configuration not stated),> 200,> 200 µM,
COc1ccc(C(=O)N2c3ccccc3N(C)n3cccc3C2CC(=O)O)cc1 (configuration not stated),> 646,234 µM,
CC(=O)N(C(C)=O)c1cnc2c(nc3cc(C)ccn32)c1C,> 200,52.5 µM,

SMILES,EC50 [µM],IC50,outcome
COC1(OC)CCCc2c1no[n+]2[O-],> 200,> 200 µM,
CC(=O)OC1CCC2(C)C(CCC3C2CCC2(C)C3CCC2C(C)(C)O)C1 (configuration not stated),> 200,174 µM,
CCO[C@@H]1CCC(S(=O)c2ccc(C)cc2)=CO1 (some centres not stated),> 200,> 200 µM,
COC(=O)C(=O)C(CC(=O)Nc1ccc(C)cc1)C(=O)OC (configuration not stated),> 309,> 309 µM,
NC1CSSCC(C(=O)O)NC1=O (configuration not stated),> 61.7,> 61.7 µM,
Cc1ccc(S(=O)(=O)n2oc(=O)c(-c3ccccc3)c2N)cc1,> 200,55 µM,
CSc1nc(-c2ccccc2)c2c(n1)-c1ccccc1CC2,> 12.3,> 12.3 µM,
O=C(O)C(Cc1ccc(O)cn1)NC(=O)C(F)(F)F (configuration not stated),> 200,> 200 µM,
COc1ccc(/C(C#N)=C/c2cccc(N)c2)cc1,> 200,25.1 µM,
Cc1cc(C)nc(NC(N)=NCCc2ccccc2)n1,> 200,3.31 µM,
Cc1ccccc1C1OC(=O)c2ccccc21 (configuration not stated),> 158,97.7 µM,
CC(=O)O[C@H]1CCC2[C@@H]3CCC4C(=O)c5oncc5C[C@]4(C)C3CC[C@@]21C (some centres not stated),,,inactive
COC(=O)[C@]1(C)CC[C@]2(C)CC[C@]3(C)C4CC[C@@]56CO[C@@](O)(CCC5[C@]4(C)CCC3(C)[C@@H]2C1)[C@@H]6C (some centres not stated),> 28.2,26.9 µM,
COc1cc2c(cc1O)CC[C@@H]1C2CC[C@@]2(C)C1CC[C@@H]2O (some centres not stated),> 2,0.331 µM,
Clc1ccc(CN2COc3c(cc(Cl)c4cccnc34)C2)c(Cl)c1,> 100,1.74 µM,
CCOc1cc2c(cc1O)/C(=N\OC)C[C@@H]1[C@@H]2CC[C@]2(C)[C@@H](O)CC[C@@H]12,> 200,0.0724 µM,
O=C1C=C(Nc2cccnc2)c2ccccc2C1=O,> 20.9,18.2 µM,
CN(c1ccccc1)C(c1ccccc1)C(O)c1ccccc1 (configuration not stated),,,inactive
O=C(OCC1OC2OC(c3ccccc3)(n3ccc4c([N+](=O)[O-])ccnc43)OC2C1OC(=O)c1ccccc1)c1ccccc1 (configuration not stated),> 200,145 µM,
Cn1c2ccccc2n2c3ccccc3c3nnc(N)c-3c12,> 200,28.2 µM,
CCOC(=O)c1ccccc1NNC(=O)CCC(=O)O,> 224,219 µM,
CCOC(=O)c1c(NC(=O)c2ccc(Br)cc2)sc2c1CCCC2,> 200,> 200 µM,

SMILES,EC50 [µM],IC50,outcome
O=C1C(=O)N(C2CCCCC2)C(=S)N1C1CCCCC1,> 200,> 200 µM,
C[C@]12CC[C@H](OC(=O)/C=C\c3ccccc3N(CCCl)CCCl)CC1CC[C@@H]1C2CC[C@]2(C)NC(=O)CCC12 (some centres not stated),,,inactive
c1ccc2oc(NCCSSCCNc3nc4ccccc4o3)nc2c1,> 200,10.5 µM,
C[Si](C)(C)c1ccc(CC2(Cc3ccc([Si](C)(C)C)cc3)CCNC2)cc1,> 5.01,> 5.01 µM,
COC(=O)[C@H](CC(C)C)NC(=O)[C@H](Cc1ccccc1)N1CC2C=CC1C2 (some centres not stated),> 676,> 676 µM,
CC(=O)OC1COC(n2c(N)c(C#N)c(-c3ccccc3)c(C#N)c2=S)C(OC(C)=O)C1OC(C)=O (configuration not stated),> 200,33.9 µM and 36.3 µM,
O=C(O)CN1C(=O)CN=C(c2ccccn2)c2cc(Cl)ccc21,> 759,> 759 µM,
Nc1nc(N)nc(-c2cnc3ccccc3c2)n1,> 200,> 200 µM,
O=C(NNC(=O)c1ccncc1)C(=O)Nc1cc(Cl)c(Cl)cc1Cl,> 18.6,> 18.6 µM,
O=C(O)c1ccc(-c2c3ccc(=O)cc-3oc3cc(O)ccc23)c(C(=O)O)c1,60.3,162 µM,
NC(=O)c1cnc2cc(O)c(O)cc2c1,> 209,14.1 µM,
C(=C\C(Sc1ccccc1)c1ccccc1)/NNC1=NC(c2ccccc2)C(c2ccccc2)=NN1 (configuration not stated),> 14.8,> 14.8 µM,
COc1c(Br)cc(C(=O)c2cc(Br)c(OC)c(C(=O)O)c2)cc1C(=O)O,> 1480,> 1480 µM,
CCn1nc(-c2ccccc2)c2c1N(C)c1ccccc1-n1c(-c3ccccc3)nnc1-2,> 200,26.3 µM,
O=C1Sc2ccccc2C(=O)N2C1CSC2c1ccccc1 (configuration not stated),> 200,> 200 µM,
COc1ccc(NC(=O)CSc2nnc(-c3ccc(N=Cc4ccc(Cl)cc4)cc3)o2)cc1,> 141,31.6 µM,
CCOC(=O)CN1CCC(C2(c3cc4ccccc4[nH]3)OCCO2)CC1,> 363,> 363 µM,
CCOC(=O)/C(=C\c1c(C)[nH]c2ccccc12)P(=O)(OCC)OCC,69.2,110 µM,
CC(C)(C)N/N=C(\Cc1occc(=O)c1O)C(=O)Nc1ccc([N+](=O)[O-])cc1[N+](=O)[O-],> 158,> 158 µM,
CN(COC(=O)C(C)(C)C)c1nc(N(C)COC(=O)C(C)(C)C)nc(N(C)COC(=O)C(C)(C)C)n1,> 100,18.6 µM,
COc1cc2c(cc1OC)C(C#N)N(C(=O)c1ccccc1)C=C2OC(=O)c1ccccc1 (configuration not stated),,,inactive
S=C1CNC(=S)CN1,,,inactive

SMILES,EC50 [µM],IC50,outcome
O=C1CCC(C2(O)c3ccccc3-c3ccccc32)C(=O)N1 (configuration not stated),> 123,> 123 µM,
Nc1ccc(S(=O)(=O)C(=O)O)cc1,> 1230,> 1230 µM,
N#C/C(N)=C(\C#N)N=CNc1ccccc1N,> 200,> 200 µM,
C=CC(CCC(C)O)[Si](C)(C)C (configuration not stated),> 977,> 977 µM,
Cc1cc(Cl)ccc1N1C(=O)C(=O)C(c2nc3ccccc3s2)C(=O)C1=O,> 91.2,> 91.2 µM,
CC1(CO)CC(O)C(n2cnc3c(N)ncnc32)O1 (configuration not stated),> 5.13,> 5.13 µM,
NC(N)=NS(=O)(=O)c1ccc(NC(=O)c2ccc3nc4ccccc4c(N)c3c2)cc1,102,> 200 µM,
Cc1cc(Cl)c2c(c1)C(=O)/C(=C/c1ccc(Cl)cc1)O2,> 200,15.8 µM,
Cc1c(Cl)c(=O)oc2cc(O)ccc12,> 324,174 µM,
Nc1ccc(N=Nc2ccc(N=Nc3c(S(=O)(=O)O)cc4cc(S(=O)(=O)O)c(N=Nc5ccc(N=Nc6ccc(N)cc6N)cc5)c(O)c4c3N)cc2)c(N)c1,11.5,50.1 µM,
C[C@]12CC(C#N)C(=O)C(O)=C1CC[C@@H]1C2CC[C@@]2(C)C1CC[C@@H]2O (some centres not stated),,,inactive
COC(=O)C1CC(C(=O)OC)c2nc3cc(C)ccc3nc21 (configuration not stated),> 437,> 437 µM,
Brc1ccc(C2=CSC3=NCCN23)cc1,> 200,23.4 µM and 107 µM,
CC(=O)Oc1ccc2c(c1)c1c(=O)oc(C)nc1n2Cc1ccccc1,> 200,66.1 µM,
CCOC(=O)/C(=C/c1ccc(OC)cc1)N(CC)CC,> 468,263 µM,
O=C(CSc1nnc(-c2ccc(N=Cc3ccc(Cl)cc3)cc2)o1)Nc1cccc(Cl)c1,> 74.1,> 74.1 µM,
CCC1CC2C(=O)N(c3ccccc3)C(=O)C2c2[nH]c3ccccc3c21 (configuration not stated),,,inactive
COC(=O)[C@@]1(C)CCC[C@]2(C(=O)O)C3Cc4occc4[C@H](C)[C@@H]3CCC21 (some centres not stated),> 200,105 µM,
CC(=O)n1nc(C)c(-c2onc3ccc(Cl)cc23)c1C,40.7,44.7 µM,
O=C(O)c1ccc(CSc2ccc(Cl)cc2)c([N+](=O)[O-])c1,> 209,95.5 µM,
